Results as given in patent US20100160369A1, “S1P1 Agonists and Methods of Making And Using” (EXELIXIS, INC., priority 2008, published 2010).

molecular target: T1, S1P1 (Homo sapiens, UniProt P21453); test: Tango β-arrestin Recruitment Assay in U2OS cells (Assay 2b); format: cell-based; parameters: linker with TEV protease (N1a) cleavage site (C); conditions: Tango β-arrestin Recruitment Assay, footnote 1: Relative EC50 was measured, read-out: Assay 2b relative EC50
Source text: (§1) For the Tango™ β-arrestin recruitment assay, the cytoplasmic C-terminus of S1P1 is tethered to the tTA transcriptional activator with a linker that contains a cleavage site for the N1a protease from tobacco etch virus (TEV protease). The C-terminus of the human β-arrestin2 protein is fused to TEV protease. Binding of an agonist recruits the β-arrestin-TEV fusion protein to the receptor resulting in cleavage of the linker and release of tTA to enter the nucleus and subsequently activate a tTA-dependent luciferase reporter gene.
Alternatively, U2OS cells expressing the reporter gene and S1P1 (Invitrogen) were added to the wells of a 384-well white opaque bottom assay plate (PerkinElmer) at […] per well. The cells were serum starved for 48 h in Freestyle medium (Invitrogen). Test compounds were tested at maximum concentrations of 1 μM for the agonist assay. Compounds were diluted in DMSO (10 concentration points, 3-fold each) and added to the assay plate at a 1% final DMSO concentration. The efficacy control was 1 μM S1P (Avanti). For each compound, there were duplicate assay plates and each assay plate had duplicate wells per concentration point. The plate was incubated overnight at 37° C. The GeneBLAzer β-lactamase assay reagent (Invitrogen) was added and the plates were incubated for an additional 2 h at room temperature. Fluorescence was measured using an EnVision plate reader (PerkinElmer, Waltham, Mass.) at an excitation wavelength of 409 nm and emission wavelengths of 460 nm and 530 nm. The emission intensity at each wavelength was background subtracted against wells containing medium only and the F460 nm/F530 nm ratio determined for each concentration of the test compounds. Percent activity was calculated as [(test compound ratio−DMSO ratio)/(positive control ratio−DMSO ratio)*100], where the positive control and DMSO ratios are from cells incubated with the efficacy control 1 μM S1P and 1% DMSO, respectively. The percent activities were plotted against compound concentration to determine EC50 using XLFit (IDBS).
(§2) Assay 1 is the CNG cAMP Assay as described in Biological Example 1. Assay 2a and 2b are the Tango™ β-arrestin Recruitment Assay in HEK293 and U2OS cells, respectively, as described in Biological Example 2. Assay 3a is the hS1P1R GTPγS Binding Assay as described in Biological Example 3. Assay 3b is the GTP-Eu Binding Assay as described in Biological Example 3. EC50's were measured unless otherwise noted. […] In the table, “nt” means the Compound was not tested and “no” means the compound was tested but had no measurable activity under the assay conditions employed.
Target sequence in this assay (P21453 whole entry, the tested form may be a part): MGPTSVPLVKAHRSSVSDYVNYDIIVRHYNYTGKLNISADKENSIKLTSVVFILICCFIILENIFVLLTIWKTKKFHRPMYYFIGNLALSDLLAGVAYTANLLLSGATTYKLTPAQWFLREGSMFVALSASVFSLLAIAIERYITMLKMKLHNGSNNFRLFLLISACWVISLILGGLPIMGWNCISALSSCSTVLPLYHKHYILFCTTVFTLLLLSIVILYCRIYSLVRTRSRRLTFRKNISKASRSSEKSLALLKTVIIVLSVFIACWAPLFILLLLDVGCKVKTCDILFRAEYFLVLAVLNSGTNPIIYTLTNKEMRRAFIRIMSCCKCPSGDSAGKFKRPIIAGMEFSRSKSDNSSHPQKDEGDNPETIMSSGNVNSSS
Target sequence in this assay (P32121 whole entry partner, the tested form may be a part): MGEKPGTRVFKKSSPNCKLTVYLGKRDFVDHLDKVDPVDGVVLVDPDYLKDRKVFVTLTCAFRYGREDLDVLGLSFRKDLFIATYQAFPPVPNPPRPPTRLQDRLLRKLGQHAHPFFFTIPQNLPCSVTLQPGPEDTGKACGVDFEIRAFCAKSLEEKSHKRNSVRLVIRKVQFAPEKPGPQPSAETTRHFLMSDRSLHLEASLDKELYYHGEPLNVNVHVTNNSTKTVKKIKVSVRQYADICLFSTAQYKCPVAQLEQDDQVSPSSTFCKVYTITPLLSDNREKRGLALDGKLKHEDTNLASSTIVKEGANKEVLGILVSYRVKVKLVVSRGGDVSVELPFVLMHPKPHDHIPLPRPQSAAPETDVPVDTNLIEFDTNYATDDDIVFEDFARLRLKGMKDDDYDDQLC

SMILES | EC50 [nM]
COc1cc(Cl)c(-c2noc(-c3cn4cc(C(F)(F)F)cc(Cl)c4n3)n2)cc1Cl [Example 341] | 500 to 1000

same assay, conditions: Tango β-arrestin Recruitment Assay, read-out: Assay 2b EC50

SMILES | EC50 [nM]
NCC(O)COc1cc(Cl)c(-c2nnc(-c3cn4cc(C(F)(F)F)cc(Cl)c4n3)s2)cc1Cl (stereo not drawn) [Example 336, 1-amino-3-[(2,5-dichloro-4-{5-[8-chloro-6-(trifluoromethyl)imidazo[1,2-a]pyridin-2-yl]-1,3,4-thiadiazol-2-yl}phenyl)oxy]propan-2-ol] | ≤ 100
Cc1cc(CCC(=O)O)c(Cl)cc1-c1nc(-c2cn3cc(C(F)(F)F)cc(Cl)c3n2)no1 [Example 329, 3-(2-chloro-4-{3-[8-chloro-6-(trifluoromethyl)imidazo[1,2-a]pyridin-2-yl]-1,2,4-oxadiazol-5-yl}-5-methylphenyl)propanoic acid] | ≤ 100
CC(CCc1cc(Cl)c(-c2noc(-c3cn4cc(C(F)(F)F)cc(Cl)c4n3)n2)cc1Cl)OP(=O)(O)O (stereo not drawn) [Example 221, 3-(2,5-dichloro-4-{5-[8-chloro-6-(trifluoromethyl)imidazo[1,2-a]pyridin-2-yl]-1,2,4-oxadiazol-3-yl}phenyl)-1-methylpropyl dihydrogen phosphate] | ≤ 100
O=C(COc1cc(Cl)c(-c2noc(-c3cn4cc(C(F)(F)F)cc(Cl)c4n3)n2)cc1Cl)COP(=O)(O)O [Entry 51] | ≤ 100
CC(O)COc1cc(Cl)c(-c2noc(-c3cn4cc(C(F)(F)F)cc(Br)c4n3)n2)cc1Cl (stereo not drawn) [Example 316, 1-[(4-{5-[8-bromo-6-(trifluoromethyl)imidazo[1,2-a]pyridin-2-yl]-1,2,4-oxadiazol-3-yl}-2,5-dichlorophenyl)oxy]propan-2-ol] | ≤ 100
CC(=O)COc1cc(Cl)c(-c2noc(-c3cn4cc(C(F)(F)F)cc(Br)c4n3)n2)cc1Cl [Example 305, 1-[(4-{5-[8-bromo-6-(trifluoromethyl)imidazo[1,2-a]pyridin-2-yl]-1,2,4-oxadiazol-3-yl}-2,5-dichlorophenyl)oxy]propan-2-one] | ≤ 100
N[C@@H](CO)COc1cc(Cl)c(-c2nnc(-c3cn4cc(C(F)(F)F)ccc4n3)s2)cc1F [Example 309, (2S)-2-amino-3-[(5-chloro-2-fluoro-4-{5-[6-(trifluoromethyl)imidazo[1,2-a]pyridin-2-yl]-1,3,4-thiadiazol-2-yl}phenyl)oxy]propan-1-ol] | ≤ 100
CC(N)(CO)COc1cc(Cl)c(-c2nnc(-c3cn4cc(C(F)(F)F)ccc4n3)s2)cc1F (stereo not drawn) [Entry 44] | ≤ 100
NC(CO)COc1cc(Cl)c(-c2nnc(-c3cn4cc(C(F)(F)F)ccc4n3)s2)cc1Cl (stereo not drawn) [Example 100, 2-amino-3-[(2,5;dichloro-4-{5-[6-(trifluomethyl)imidazo[1,2-a]pyridin-2-yl] 1,3,4-thiadiazol-2-yl}phenyl)oxy]propan-1-ol] | ≤ 100
O=C(O)CC(=O)COc1cc(Cl)c(-c2noc(-c3cn4cc(C(F)(F)F)cc(Cl)c4n3)n2)cc1Cl [Entry 5] | ≤ 100
NC(CO)COc1cc(Cl)c(-c2nnc(-c3cn4cc(Br)ccc4n3)s2)cc1F (stereo not drawn) [Example 339, 2-amino-3-({4-[5-(6-bromoimidazo[1,2-a]pyridin-2-yl)-1,3,4-thiadiazol-2-yl]-5-chloro-2-fluorophenyl}oxy)propan-1-ol] | ≤ 100
CC(N)(CO)COc1cc(Cl)c(-c2nnc(-c3cn4cc(C(F)(F)F)cc(Cl)c4n3)s2)cc1F (stereo not drawn) [Entry 46] | ≤ 100
C[C@H](CO)Oc1cc(Cl)c(-c2noc(-c3cn4cc(C(F)(F)F)cc(Cl)c4n3)n2)cc1Cl [Example 155, (2R)-2-[(2,5-dichloro-4-{5-[8-chloro-6-(trifluoromethyl)imidazo[1,2-a]pyridin-2-yl]-1,2,4-oxadiazol-3-yl}phenyl)oxy]propan-1-ol] | ≤ 100
O=C(O)CCc1c(F)cc(-c2noc(-c3cn4cc(C(F)(F)F)cc(Cl)c4n3)n2)cc1Cl [Example 296, 3-(2-chloro-4-{5-[8-chloro-6-(trifluoromethyl)imidazo[1,2-a]pyridin-2-yl]-1,2,4-oxadiazol-3-yl}-6-fluorophenyl)propanoic acid] | ≤ 100
N[C@H](CO)COc1cc(Cl)c(-c2nnc(-c3cn4cc(C(F)(F)F)ccc4n3)s2)cc1F [Entry 43] | ≤ 100
NC(CO)(CO)CCc1cc(Cl)c(-c2noc(-c3cn4cc(C(F)(F)F)cc(Cl)c4n3)n2)cc1F [Example 154, 2-amino-2-[2-(5-chloro-4-{5-[8-chloro-6-(trifluoromethyl)imidazo[1,2-a]pyridin-2-yl]-1,2,4-oxadiazol-3-yl}-2-fluorophenyl)ethyl]propane-1,3-diol] | ≤ 100
CC(O)(COc1cc(Cl)c(-c2noc(-c3cn4cc(C(F)(F)F)cc(Cl)c4n3)n2)cc1Cl)C(=O)O (stereo not drawn) [Example 327, 3-[(2,5-dichloro-4-{5-[8-chloro-6-(trifluoromethyl)imidazo[1,2-a]pyridin-2-yl]-1,2,4-oxadiazol-3-yl}phenyl)oxy]-2-hydroxy-2-methylpropanoic acid] | ≤ 100
CC1(C)OC[C@@H](COc2cc(Cl)c(-c3noc(-c4cn5cc(C(F)(F)F)cc(Cl)c5n4)n3)cc2Cl)O1 [Example 304, 8-chloro-2-{3-[2,5-dichloro-4-({[(4R)-2,2-dimethyl-1,3-dioxolan-4-yl]methyl}oxy)phenyl]-1,2,4-oxadiazol-5-yl}-6-(trifluoromethyl)imidazo[1,2-a]pyridine] | ≤ 100
COCC(O)COc1cc(Cl)c(-c2noc(-c3cn4cc(C(F)(F)F)cc(Cl)c4n3)n2)cc1Cl (stereo not drawn) [Example 318, 1-[(2,5-dichloro-4-{5-[8-chloro-6-(trifluoromethyl)imidazo[1,2-a]pyridin-2-yl]-1,2,4-oxadiazol-3-yl}phenyl)oxy]-3-(methyloxy)propan-2-ol] | ≤ 100
O=C(COc1cc(Cl)c(-c2noc(-c3cn4cc(C(F)(F)F)cc(Cl)c4n3)n2)cc1Cl)C(F)(F)F [Entry 18] | ≤ 100

molecular target: T1, S1P1; test: CNG cAMP Assay (Assay 1); format: cell-based; parameters: host or cells: HEK293 cells expressing the CNG channel; conditions: read-out: Assay 1 EC50
In short: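 cAMP-gated CNG membrane-potential read-out (350/590 nm, T90/T0 ratio) in S1P1/CNG HEK293 cells after 90 min with compound plus NECA 500 nM, S1P 10 nM (EC95), Ro 20-1724 25 μM. Ten 3-fold points from 10 μM, 1.8% DMSO; percent activity vs NECA-only control gives EC50.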
Target sequence in this assay (P21453 whole entry, the tested form may be a part): as the sequence (P21453 whole entry, the tested form may be a part) above

SMILES | EC50 [nM]
FC(F)(F)c1cc(Br)c2nc(-c3nc(-c4ccccc4Cl)no3)cn2c1 [Example 159, 8-bromo-2-[3-(2-chlorophenyl)-1,2,4-oxadiazol-5-yl]-6-(trifluoromethyl)imidazo[1,2-a]pyridine] | ≤ 100
Oc1cc(Cl)c(-c2noc(-c3cn4cc(C(F)(F)F)cc(Cl)c4n3)n2)cc1Cl [Example 191, 2,5-dichloro-4-{5-[8-chloro-6-(trifluoromethyl)imidazo[1,2-a]pyridin-2-yl]-1,2,4-oxadiazol-3-yl}phenol] | ≤ 100
O=C(O)CCc1cc(Cl)c(-c2noc(-c3cn4cc([N+](=O)[O-])cc(Cl)c4n3)n2)cc1F [Entry 36] | ≤ 100

molecular target: T1, S1P1; test: Tango β-arrestin Recruitment Assay in HEK293 cells (Assay 2a); format: cell-based; parameters: linker with TEV protease (N1a) cleavage site (C); host or cells: HEK293, transiently transfected; conditions: Tango β-arrestin Recruitment Assay, read-out: Assay 2a EC50
Source text: as §1
Frozen HEK293 cells transiently transfected with receptor cDNAs for S1P1 (Invitrogen) were thawed and suspended in 10 mL of Pro293a-CDM culture medium (Invitrogen) supplemented with 4 mM L-Glutamine (Invitrogen), 1× Pen/Strep (100 units/mL penicillin and 100 μg/mL streptomycin, Invitrogen) and 0.1% fatty acid free BSA (Sigma-Aldrich). Cells were added to the wells of a 384-well white opaque bottom assay plate (PerkinElmer) at 3,000-6,000 cells per well and the plate was incubated for approximately 4 h in a 37° C. incubator. Test compounds were tested at maximum concentrations of 10 μM for the agonist assays. Compounds were diluted in DMSO (10 concentration points, 3-fold each) and added to the assay plate at a 1% final DMSO concentration. For each compound, there were duplicate assay plates and each assay plate had duplicate wells per concentration point. The plate was incubated at 37° C. for 30 min. The efficacy control was 5 μM S1P (Avanti). Following agonist addition, the assay plates were incubated in a 37° C. incubator for 16-18 h. Luciferase assay reagent was added and luminescence measured in an EnVision plate reader (PerkinElmer). To determine agonist activity, percent activity was calculated as [(test compound−background)/(positive control−background)* 100], where background is the luminescence of the DMSO alone control and the positive control is the luminescence from cells incubated with the efficacy control 5 μM S1P. The percent activities were plotted against compound concentration to determine EC50 using XLFit (IDBS).
Target sequence in this assay (P21453 whole entry, the tested form may be a part): as above
Target sequence in this assay (P32121 whole entry partner, the tested form may be a part): as the sequence (P32121 whole entry partner, the tested form may be a part) above
as §2

SMILES | EC50 [nM]
FC(F)(F)c1cc(Br)c2nc(-c3nc(-c4ccccc4Cl)no3)cn2c1 [Example 159, 8-bromo-2-[3-(2-chlorophenyl)-1,2,4-oxadiazol-5-yl]-6-(trifluoromethyl)imidazo[1,2-a]pyridine] | 100 to 500
Oc1cc(Cl)c(-c2noc(-c3cn4cc(C(F)(F)F)cc(Cl)c4n3)n2)cc1Cl [Example 191, 2,5-dichloro-4-{5-[8-chloro-6-(trifluoromethyl)imidazo[1,2-a]pyridin-2-yl]-1,2,4-oxadiazol-3-yl}phenol] | ≤ 100
O=C(O)CCc1cc(Cl)c(-c2noc(-c3cn4cc([N+](=O)[O-])cc(Cl)c4n3)n2)cc1F [Entry 36] | 100 to 500
